According to US10220034B2, “Hepatitis B viral assembly effectors” (Indiana University Research and Technology Corp., priority 2013, dated 2019):

Tested on: HBV Cp
Assay: Capsid assembly assay (fluorescence quenching)
Settings: 10 μM compound, control reactions with no drug show 25±5% assembly

Cc1ccc(Nc2cc(C)nc(N3CCN(S(=O)(=O)c4ccc(OC(F)(F)F)cc4)CC3)n2)cc1 [compound 2]
% Capsid formation at 24 h (10 μM): 83%

Cc1ccc(Nc2cc(C)nc(N3CCN(S(=O)(=O)c4ccc(O)cc4)CC3)n2)cc1 [compound 4]
% Capsid formation at 24 h (10 μM): 99%

CCCCOc1ccc(S(=O)(=O)N2CCN(c3nc(C)cc(Nc4ccc(C)cc4)n3)CC2)cc1 [compound 9]
% Capsid formation at 24 h (10 μM): 93%

Cc1ccc(Nc2cc(C)nc(N3CCN(S(=O)(=O)c4ccccc4)CC3)n2)cc1 [compound 12]
% Capsid formation at 24 h (10 μM): 73%

Cc1ccc(Nc2cc(C)nc(N3CCN(S(=O)(=O)c4ccc(F)cc4)CC3)n2)cc1 [compound 13]
% Capsid formation at 24 h (10 μM): 60%

Cc1ccc(Nc2cc(C)nc(N3CCN(S(=O)(=O)c4ccccc4F)CC3)n2)cc1 [compound 14]
% Capsid formation at 24 h (10 μM): 67%

Cc1ccc(Nc2cc(C)nc(N3CCN(S(=O)(=O)c4ccc5ccccc5c4)CC3)n2)cc1 [compound 17]
% Capsid formation at 24 h (10 μM): 70%

Cc1ccc(Nc2cc(C)nc(N3CCN(S(=O)(=O)c4ccc5cc(N(C)C)ccc5c4)CC3)n2)cc1 [compound 19]
% Capsid formation at 24 h (10 μM): 83%

CCCCc1ccc(S(=O)(=O)N2CCN(c3nc(C)cc(Nc4ccc(C)cc4)n3)CC2)cc1 [compound 20]
% Capsid formation at 24 h (10 μM): 90%

CC(C)c1cc(Nc2ccc(F)cc2)nc(N2CCN(S(=O)(=O)c3ccccc3)CC2)n1 [compound 21]
% Capsid formation at 24 h (10 μM): 71%

Cc1ccc(S(=O)(=O)N2CCN(c3nc(Nc4ccc(F)cc4)cc(C(C)C)n3)CC2)cc1 [compound 22]
% Capsid formation at 24 h (10 μM): 80%

COc1ccc(S(=O)(=O)N2CCN(c3nc(Nc4ccc(C)cc4)cc(C(C)C)n3)CC2)cc1 [compound 30]
% Capsid formation at 24 h (10 μM): 87%

COc1ccc(S(=O)(=O)N2CCN(c3nc(C)cc(Nc4ccc(OC(F)(F)F)cc4)n3)CC2)cc1 [compound 36]
% Capsid formation at 24 h (10 μM): 78%

COc1ccc(S(=O)(=O)N2CCN(c3nc(C)cc(Nc4ccc(F)cc4)n3)CC2)cc1 [compound 38]
% Capsid formation at 24 h (10 μM): 75%

COc1ccc(S(=O)(=O)N2CCN(c3nc(C)cc(Nc4ccccc4)n3)CC2)cc1 [compound 39]
% Capsid formation at 24 h (10 μM): 56%

COc1ccc(Nc2cc(C)nc(N3CCN(S(=O)(=O)c4ccc(OC)cc4)CC3)n2)cc1 [compound 41]
% Capsid formation at 24 h (10 μM): 84%

COc1ccc(Nc2cc(C)nc(N3CCN(S(=O)(=O)c4ccc(OC)cc4)CC3)n2)cc1 [compound 43]
% Capsid formation at 24 h (10 μM): 97%

COc1cccc(S(=O)(=O)N2CCN(c3nc(C)cc(Nc4ccc(F)cc4)n3)CC2)c1 [compound 44]
% Capsid formation at 24 h (10 μM): 92%

COc1ccc(Nc2cc(C)nc(N3CCN(S(=O)(=O)c4ccc(OC)c(OC)c4)CC3)n2)cc1 [compound 45]
% Capsid formation at 24 h (10 μM): 87%
